Structures can show the parent of a compound that is named as a salt.

In one data set the target is T1, Jak3 (Homo sapiens, UniProt P52333).
T1 construct: Jak3 enzyme (aa 811-1103); expressed in SF9 cells as a GST fusion; GST; made in house; host or cells: SF9 insect cells
T1 sequence (P52333 811-1103): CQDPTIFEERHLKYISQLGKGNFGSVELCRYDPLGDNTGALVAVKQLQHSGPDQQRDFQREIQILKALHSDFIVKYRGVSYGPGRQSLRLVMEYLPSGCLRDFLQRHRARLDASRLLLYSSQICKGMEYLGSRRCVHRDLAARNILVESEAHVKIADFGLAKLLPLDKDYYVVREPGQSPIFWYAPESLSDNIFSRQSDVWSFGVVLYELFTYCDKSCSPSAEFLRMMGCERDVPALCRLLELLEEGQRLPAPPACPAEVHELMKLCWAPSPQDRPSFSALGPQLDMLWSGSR
Kind of data set: Jak3 enzyme data for selected compounds. Format: biochemical.
For orientation: IC50 means the concentration needed to halve the response being measured. Low readings indicate greater potency, high ones weaker potency. `CC[C@@H]1C[C@H](NS(=O)(=O)C(C)(C)C)C[C@@H]1c1nnc2cnc3[nH]ccc3n12` [D.1.67] gave a concentration for half-maximal inhibition (IC50) of 0.1 to 1 µM.

On to `CC[C@@H]1C[C@H](OCc2ccc(OC)cc2)C[C@H]1c1nnc2cnc3[nH]ccc3n12` (racemic) [D.1.38], for which the IC50 was 0.1 to 1 µM.

In the case of `N#CC1CN(C(=O)N2CCC[C@@H](c3ncc4cnc5[nH]ccc5n34)C2)C1` [J.3.4], the half-inhibitory concentration (IC50) is below 0.1 µM.

Take `CC[C@H]1C[C@@H](NS(=O)(=O)CCC(F)(F)F)C[C@H]1c1cnc2cnc3[nH]ccc3n12` (single isomer, unassigned) [AA.1.76, N-(3-ethyl-4-(3H-imidazo[1,2-a]pyrrolo[2,3-e]pyrazin-8-yl)cyclopentyl)-3,3,3-trifluoropropane-1-sulfonamide]: the IC50 is above 1 µM.

Compound `O=S(=O)(NC12CCC(c3n[nH]c4cnc5[nH]ccc5c34)(CC1)CC2)C1CC1` [Example #29, N-(4-(3,6-dihydropyrazolo[4,3-d]pyrrolo[2,3-b]pyridin-1-yl)bicyclo[2.2.2]octan-1-yl)cyclopropanesulfonamide] came in with a concentration for half-maximal inhibition (IC50) below 0.1 µM.

Compound `CC[C@@H]1C[C@H](NS(=O)(=O)C2(C)CC2)C[C@@H]1c1nnc2cnc3[nH]ccc3n12` [D.1.35] had a half-maximal inhibitory concentration (IC50) below 0.1 µM.

The compound `C[C@@H]1CCN(C(=O)C2CC(F)(F)C2)C[C@@H]1c1ncc2cnc3[nH]ccc3n12` [H.1.21] yielded a half-inhibitory concentration (IC50) below 0.1 µM.

The compound `CC[C@@H]1C[C@H](Nc2cnc(C#N)cn2)C[C@@H]1c1nnc2cnc3[nH]ccc3n12` [D.2.11] had an IC50 of 0.1 to 1 µM.

As to `CC[C@H]1C[C@H](Oc2ccc(C(F)(F)F)cn2)C[C@H]1c1nnc2cnc3[nH]ccc3n12` (single isomer, unassigned) [AA.1.96, 1-(2-ethyl-4-(5-(trifluoromethyl)pyridin-2-yloxy)cyclopentyl)-6H-pyrrolo[2,3-e][1,2,4]triazolo[4,3-a]pyrazine], the IC50 is above 1 µM.

In the case of `CC[C@@H]1C[C@H](NS(=O)(=O)N2CC(C#N)C2)C[C@@H]1c1nnc2cnc3[nH]ccc3n12` [D.2.5], the IC50 lay within 0.1 to 1 µM.

`C[C@@H]1CCN(C(=O)N2CCC[C@H]2C)C[C@@H]1c1ncc2cnc3[nH]ccc3n12` [J.2.13] displayed a concentration for half-maximal inhibition (IC50) below 0.1 µM.

`C[C@@H]1C[C@H](NS(=O)(=O)C2CC2)CN1c1ncc2cnc3[nH]ccc3n12` [D.1.47]: the half-maximal inhibitory concentration (IC50) is 0.1 to 1 µM.

`CC[C@@H]1C[C@H](N(CCO)S(=O)(=O)C2CC2)C[C@@H]1c1nnc2cnc3[nH]ccc3n12` [D.1.31]: the IC50 is below 0.1 µM.

For `CC[C@H]1C[C@H](OCc2ccc(C#N)cc2)C[C@H]1c1nnc2cnc3[nH]ccc3n12` (single isomer, unassigned) [AA.1.102, 4-((3-ethyl-4-(6H-pyrrolo[2,3-e][1,2,4]triazolo[4,3-a]pyrazin-1-yl)cyclopentyloxy)methyl)benzonitrile], the IC50 was above 1 µM.

On to `C[C@@H]1CCN(C(=O)N2CC[C@H](F)C2)C[C@@H]1c1ncc2cnc3[nH]ccc3n12` [J.2.12], for which the IC50 is below 0.1 µM.

In the case of `C[C@@H]1CCN(C(=O)CCc2cc(Cl)no2)C[C@@H]1c1ncc2cnc3[nH]ccc3n12` [H.1.10], the 50% inhibitory concentration (IC50) is below 0.1 µM.

Consider `C[C@@H]1CCN(C(=O)C2(C#N)CC2)C[C@@H]1c1ncc2cnc3[nH]ccc3n12` (racemic) [H.3.14], for which the IC50 was in the range of 0.1 to 1 µM.

As for `CC[C@@H]1C[C@H](OCC2CC2)C[C@@H]1c1nnc2cnc3[nH]ccc3n12` (single isomer, unassigned) [AA.1.80, 1-(4-(cyclopropylmethoxy)-2-ethylcyclopentyl)-6H-pyrrolo[2,3-e][1,2,4]triazolo[4,3-a]pyrazine], the IC50 is above 1 µM.

For the compound `C[C@@H]1CCN(C(=O)C2CCS(=O)(=O)C2)C[C@@H]1c1ncc2cnc3[nH]ccc3n12` (mixture of isomers) [H.1.29], the concentration for half-maximal inhibition (IC50) is below 0.1 µM.

`C[C@@H]1CCN(C(=O)N2CC[C@@H](F)C2)C[C@@H]1c1ncc2cnc3[nH]ccc3n12` [J.2.7] displayed an IC50 below 0.1 µM.

As for `C[C@@H]1C[C@H](Nc2cnc(C#N)cn2)C[C@@H]1c1cnc2cnc3[nH]ccc3n12` (single isomer, unassigned) [AA.1.16, 5-(3-(3H-imidazo[1,2-a]pyrrolo[2,3,-e]pyrazin-8-yl)-4-methylcyclopentylamino)pyrazine-2-carbonitrile], the concentration for half-maximal inhibition (IC50) lay in the range of 0.1 to 1 µM.

Regarding `CC[C@@H]1C[C@H](NS(=O)(=O)CCn2ccnn2)C[C@@H]1c1nnc2cnc3[nH]ccc3n12` [D.1.58], the IC50 lay in the range of 0.1 to 1 µM.

In turn, `CC[C@@H]1C[C@H](NS(=O)(=O)CCC(F)(F)F)C[C@@H]1c1nnc2cnc3[nH]ccc3n12` [D.1.24] displayed an IC50 of 0.1 to 1 µM.

In turn, `CC[C@@H]1C[C@H](NS(=O)(=O)C2CC2)C[C@@H]1n1cnc2cnc3[nH]ccc3c21` (single isomer, unassigned) [Example #23] showed an IC50 below 0.1 µM.

The compound `CC[C@@H]1C[C@H](Nc2cnc(C#N)cn2)CN1c1ncc2cnc3[nH]ccc3n12` [Example #26, 5-((3S,5R)-5-ethyl-1-(6H-imidazo[1,5-a]pyrrolo[2,3-e]pyrazin-1-yl)pyrrolidin-3-ylamino)pyrazine-2-carbonitrile oxalate] registered a half-maximal inhibitory concentration (IC50) of 0.1 to 1 µM.

Turning to `C[C@@H]1CCN(C(=O)N2CCC(F)(F)C2)C[C@@H]1c1ncc2cnc3[nH]ccc3n12` [J.2.8], the 50% inhibitory concentration (IC50) is below 0.1 µM.

For the compound `C[C@@H]1CCN(S(=O)(=O)N2CCCC2)C[C@@H]1c1ncc2cnc3[nH]ccc3n12` [DD.1.1], the IC50 was below 0.1 µM.

For `C[C@@H]1CCN(C(=O)N2CCC2)C[C@@H]1c1ncc2cnc3[nH]ccc3n12` [J.2.6], the half-maximal inhibitory concentration (IC50) is below 0.1 µM.

Compound `CC[C@@H]1C[C@H](OC2CCOCC2)C[C@@H]1c1nnc2cnc3[nH]ccc3n12` [Example #22, 1-((1S,2R,4S)-2-ethyl-4-(tetrahydro-2H-pyran-4-yloxy)cyclopentyl)-6H-pyrrolo[2,3-e][1,2,4]triazolo[4,3-a]pyrazine] registered a 50% inhibitory concentration (IC50) above 1 µM.

The compound `CC[C@@H]1C[C@H](S(=O)(=O)CC(F)(F)F)C[C@@H]1c1nnc2cnc3[nH]ccc3n12` [LL.1.4] had an IC50 above 1 µM.

`O=C(N1CCC[C@@H](c2ncc3cnc4[nH]ccc4n23)C1)N1CCC(F)(F)C1` [J.3.2] registered an IC50 below 0.1 µM.

`CC[C@@H]1C[C@@H](OCc2ccc(C#N)cc2)C[C@@H]1c1nnc2cnc3[nH]ccc3n12` (single isomer, unassigned) [AA.1.101, 4-((3-ethyl-4-(6H-pyrrolo[2,3-e][1,2,4]triazolo[4,3-a]pyrazin-1-yl)cyclopentyloxy)methyl)benzonitrile] displayed an IC50 below 0.1 µM.

`CC[C@@H]1C[C@H](NS(=O)(=O)c2ccc(F)c(Cl)c2)C[C@@H]1c1cnc2cnc3[nH]ccc3n12` (single isomer, unassigned) [AA.1.92, 3-chloro-N-(3-ethyl-4-(3H-imidazo[1,2-a]pyrrolo[2,3-e]pyrazin-8-yl)cyclopentyl)-4-fluorobenzenesulfonamide]: the concentration for half-maximal inhibition (IC50) was below 0.1 µM.

For `CC[C@@H]1C[C@H](N(CC2CC2)S(=O)(=O)C2CC2)C[C@@H]1c1nnc2cnc3[nH]ccc3n12` [D.1.22], the IC50 lay within 0.1 to 1 µM.

In turn, `CC[C@@H]1C[C@H](NS(=O)(=O)N2CCC(F)(F)C2)C[C@@H]1c1nnc2cnc3[nH]ccc3n12` [D.1.13] had an IC50 of 0.1 to 1 µM.

In turn, `CC[C@@H]1C[C@H](NS(=O)(=O)C2CC2)C[C@@H]1c1nnc2cnc3[nH]cc(C)c3n12` [LL.1.1] showed an IC50 of 0.1 to 1 µM.

Turning to `CS(=O)(=O)Nc1ccc(-c2nc(C3CCCCC3)n3c2cnc2[nH]ccc23)cc1` [UUU.1.1], the half-inhibitory concentration (IC50) was below 0.1 µM.

`C[C@H]1C[C@H](Oc2ccc(C#N)cc2)C[C@H]1c1nnc2cnc3[nH]ccc3n12` (single isomer, unassigned) [AA.1.93, 4-(3-methyl-4-(6H-pyrrolo[2,3-e][1,2,4]triazolo[4,3-a]pyrazin-1-yl)cyclopentyloxy)benzonitril] yielded a 50% inhibitory concentration (IC50) above 1 µM.

`C[C@H]1CCN(S(=O)(=O)CCC(F)(F)F)C[C@@H]1Nc1ncc2cnc3[nH]ccc3n12` (racemic) [D.1.66] came in with an IC50 above 1 µM.

As to `N#Cc1ccc(N[C@@H]2CC[C@@H](c3ncc4cnc5[nH]ccc5n34)C2)cc1` (single isomer, unassigned) [AA.1.3], the IC50 lay in the range of 0.1 to 1 µM.

`O=C(N1CCC(Cl)CC1)N1CCC[C@@H](c2ncc3cnc4[nH]ccc4n23)C1` [J.3.11] had an IC50 below 0.1 µM.

As for `C[C@H]1CCN(C(=O)N2CC(C#N)C2)C[C@H]1c1ncc2cnc3[nH]ccc3n12` (racemic) [J.1.1], the 50% inhibitory concentration (IC50) is below 0.1 µM.

`C[C@@H]1C[C@H](NS(=O)(=O)CCC(F)(F)F)C[C@@H]1c1ncc2cnc3[nH]ccc3n12` [D.1.79] came in with an IC50 below 0.1 µM.

`C[C@@H]1CCN(C(=O)N2CCC[C@@H]2CO)C[C@@H]1c1ncc2cnc3[nH]ccc3n12` [J.2.9] gave a half-inhibitory concentration (IC50) below 0.1 µM.

As for `C[C@@H]1CCN(C(=O)N2CCCCCC2)C[C@@H]1c1ncc2cnc3[nH]ccc3n12` [J.2.14], the 50% inhibitory concentration (IC50) was below 0.1 µM.

`CCC1CC(CNS(=O)(=O)C2CC2)CC1c1nnc2cnc3[nH]ccc3n12` (single isomer, unassigned) [AA.1.64, N-((3-ethyl-4-(6H-pyrrolo[2,3-e][1,2,4]triazolo[4,3-a]pyrazin-1-yl)cyclopentyl)methyl)cyclopropane sulfonamide] showed an IC50 above 1 µM.

Take `C[C@@H]1CCN(C(=O)C2CCC(F)(F)CC2)C[C@@H]1c1ncc2cnc3[nH]ccc3n12` [H.1.1]: the half-inhibitory concentration (IC50) was below 0.1 µM.

The compound `CC1(S(=O)(=O)NC23CCC(c4nnc5cnc6[nH]ccc6n45)(CC2)CC3)CC1` [D.1.33] showed an IC50 above 1 µM.

Take `O=C(N1CCC[C@@H](c2ncc3cnc4[nH]ccc4n23)C1)N1CC(F)(F)C1` [J.3.1]: the concentration for half-maximal inhibition (IC50) was below 0.1 µM.

For the compound `C[C@@H]1CCN(C(=O)CCC#N)C[C@@H]1c1ncc2cnc3[nH]ccc3n12` [H.1.25], the IC50 is below 0.1 µM.

On to `CC[C@H]1C[C@@H](OCc2ccc(OC)cc2)C[C@@H]1c1n[nH]c2cnc3[nH]ccc3c12` (single isomer, unassigned) [Example #30], for which the IC50 was 0.1 to 1 µM.

Test system in another data set: not given
Assay: not given
Usually melting point stands for the temperature, or range, at which the solid turns liquid. Compound `C[C@@H]1C[C@H](NS(=O)(=O)CCC(F)(F)F)C[C@@H]1c1cnc2cnc3[nH]ccc3n12` [Example #7, N-((1S,3S,4R)-3-(3H-imidazo[1,2-a]pyrrolo[2,3-e]pyrazin-8-yl)-4-methylcyclopentyl)-3,3,3-trifluoropropane-1-sulfonamide] yielded a melting point of 225 °C.

Values taken from USRE47221E1, “Tricyclic compounds” (AbbVie Inc., priority 2009, dated 2019).
